Reference: paper PMC11489056, “Molecular mechanism of a triazole-containing inhibitor of Mycobacterium tuberculosis DNA gyrase” (iScience, 2024)
pIC50: −log10 of the molar value. Converted amounts (≈) assume the structure as drawn. Read-outs that look alike come from different tables or passages of the source.

Key:
[1] = system: Corynebacterium glutamicum (Cglu) WT; assay: MIC on Cglu WT; format: cell-based
[2] = system: wild-type C. glutamicum ATCC1332 strain; assay: Bacterial cell morphology (cell length) by microscopy; format: cell-based, Corynebacterium glutamicum; conditions: 10x MIC, 24h, vs DMSO control
[3] = system: Mycobacterium tuberculosis H37Rv WT; assay: microbe, parasite or virus in culture; format: cell-based
[4] = target: T1, Mtb GyrBA fusion protein (Mycobacterium tuberculosis, UniProt P9WG45+P9WG47); assay: DNA cleavage assay on pBR322; format: biochemical; conditions: pBR322 5 nM, Mtb gyrase 200 nM, 5 μM inhibitor
T1 construct: His6 (TEV-cleavable) (N, cleaved yes); made in house; host or cells: E. coli Bli5 (DE3)

[5] = system: Mtb; conditions: Figure 1F; cited from earlier work
[6] = physchem; format: physicochemical; conditions: pH 7.4
Method: 40 μL of a 10 mM solution in DMSO of the compound were diluted in 1.960 mL of a 1/1 octanol/PBS at pH 7.4 solution. The mixture was gently shaken 2h at room temperature. 20 μL of each solution was diluted in 480 μμL of MeOH and analyzed by LC-MS. Each compound is tested in triplicate. Analysis is performed thanks to a UPLC-MS/MS triple-quadrupole system (Waters) under SIM or MRM detection using the parameters optimized for each compound. HPLC analysis was performed using an Aquity C18 (50x2.1 mm, 1.8 μm); the gradient and the mobile phase (flow rate 600μL/min^-1) used are determined in order to detect the compound of interest with satisfying retention time and peak shape. Acquisition and analysis of data were performed with MS Workstation™ software (version 6.3.0 or higher). LogD was determined as the logarithm of the ratio of concentrations of product in octanol and PBS, determined by mass signals.

[7] = system: S. aureus; assay: MIC, agar dilution method, ESKAPE strains; format: cell-based; conditions: Staphylococcus aureus
[8] = system: E. faecium; assay: MIC, agar dilution method, ESKAPE strains; format: cell-based; conditions: Enterococcus faecium; read-out: MIC E. faecium MDR(5)
[9] = system: E. coli; assay: MIC, agar dilution method, ESKAPE strains; format: cell-based, Escherichia coli
[10] = physchem; format: physicochemical; conditions: pH 7.4, aqueous buffer, kinetic from dmso stock
Method: 10μL of a 10 mM solution in DMSO of the compound are diluted in 490 μL of PBS pH 7.4 in Matrix tube (in triplicate) or organic solvent (ACN, MeOH) in Matrix tube (in triplicate). The tubes are gently shaken 24h at room temperature. Then the tubes are centrifuged for 5 minutes at 4000 rpm and filtered over 0.45 μm filters (Millex-LH Millipore). 20 μL of each tube are diluted in 180 μL of MeOH. Analysis is performed thanks to a UPLC-MS/MS system (Waters) under SIM detection using the parameters optimized for each compound. HPLC analysis was performed using an Aquity C18 (50x2.1 mm, 1.8 μm); the gradient and the mobile phase (flow rate 600 μL/min^-1) used are determined in order to detect the compound of interest with satisfying retention time and peak shape. Acquisition and analysis of data were performed with Masslynx software. The solubility is determined by the ratio of mass signal area PBS/ organic solvent.

[11] = target: wild-type E. coli DNA gyrase (Escherichia coli, UniProt P0AES4+P0AES6); assay: biochemical; conditions: read-out: IC50 E. coli WT
[12] = system: A. baumannii; assay: MIC, agar dilution method, ESKAPE strains; format: cell-based; conditions: Acinetobacter baumannii
[13] = target: T1, Mtb GyrBA fusion protein; assay: DNA cleavage competition with ciprofloxacin; format: biochemical
[14] = target: T1, Mtb GyrBA fusion protein; assay: Cleavage complex persistence (DNA cleavage-religation assay); format: biochemical
[15] = target: T2, wild-type Mtb gyrase (Mycobacterium tuberculosis, UniProt P9WG45+P9WG47); format: biochemical
T2 construct: His tag (TEV-cleavable) (N, cleaved yes); made in house; host or cells: E. coli Bli5 (DE3)

[16] = system: K. pneumoniae; assay: MIC, agar dilution method, ESKAPE strains; format: cell-based; conditions: Klebsiella pneumoniae
[17] = target: Mtb gyrase; conditions: Figure 1E, GlaxoSmithKline MGIs; cited from earlier work
[18] = Escherichia coli, E. coli 10385 NDM-1, read-out: MIC E. coli MDR(2)
[19] = Escherichia coli, read-out: MIC E. coli WT(1)
[20] = read-out: MIC A. baumannii MDR(6)
[21] = A. baumannii 09010, VEB-1, read-out: MIC
[22] = Escherichia coli, 2 h, read-out: MIC E. coli WT
[23] = Escherichia coli, ATCC25922, read-out: MIC
[24] = Escherichia coli, E. coli 9003, BLSE, read-out: MIC

## O=c1ccc2ncc(=O)n3c2n1C[C@H]3CN1CCC(NCc2cc3c(cn2)OCCC3)CC1 [Gepotidacin, gepotidacin, reference compound]
[1]
  MIC: 0.2 µg/mL (≈ 0.446 µM)
[2]
  Cohen's d, cell length compared to control: 2.36
  effect size class, cell length compared to control: ∗∗∗∗ (huge (∗∗∗∗), d > 2.0)
[3]
  MIC: 4 µg/mL (≈ 8.92 µM)
[4]
  minor population of linearized DNA: 10–20%

## COc1cnc2ccc(=O)n(CCN3CCC(Nc4cnc(CO)c(Cl)c4)CC3)c2c1 [EC/11716]
[5]
  MIC: 0.17 µg/mL (≈ 0.383 µM)

## COc1ccc2nccc(-n3cc(CCNCc4ccc5c(c4)OCCO5)nn3)c2n1 [BDM71404 (10b)]
[6]
  logD: 1.53
[7]; read-out: MIC S. aureus MDR(4)
  MIC: 0.25 µg/mL (≈ 0.597 µM)
[7]; read-out: MIC S. aureus WT(3)
  MIC: 0.25 µg/mL (≈ 0.597 µM)
[8]
  MIC: ≤ 0.06 µg/mL
[9]; [18]
  MIC: 0.25 µg/mL (≈ 0.597 µM)
[9]; [19]
  MIC: 8 µg/mL (≈ 19.1 µM)
[10]
  solubility at 24 h: 66.9 µg/mL (≈ 160 µM)
[11]
  pIC50: 6.42

## COc1ccc2nccc(-n3cc(CCNCc4ccc5c(c4)OCCO5)nn3)c2c1 [BDM71369 (9b)]
[6]
  logD: 1.21
[12]; [20]
  MIC: 32 µg/mL (≈ 76.7 µM)
[7]; read-out: MIC S. aureus MDR(4)
  MIC: 1 µg/mL (≈ 2.4 µM)
[7]; read-out: MIC S. aureus WT(3)
  MIC: 1 µg/mL (≈ 2.4 µM)
[8]
  MIC: 0.25 µg/mL (≈ 0.599 µM)
[9]; [18]
  MIC: 1 µg/mL (≈ 2.4 µM)
[9]; [19]
  MIC: 32 µg/mL (≈ 76.7 µM)
[10]
  solubility at 24 h: > 83.5 µg/mL
[11]
  pIC50: 6.89

## COc1ccc2nccc(-n3cc(CCNCc4ccc5c(c4)NC(=O)CS5)nn3)c2n1 [BDM71403 (10a)]
[6]
  logD: 1.92
[12]; [21]
  MIC: 1 µg/mL (≈ 2.23 µM)
[12]; A. baumannii 10275, VIM-4, read-out: MIC
  MIC: < 0.06 µg/mL
[1]
  MIC: 0.12 µg/mL (≈ 0.268 µM)
[2]
  Cohen's d, cell length compared to control: 1.87
  effect size class, cell length compared to control: ∗∗∗ (very large (∗∗∗), 1.20 < d < 2.0)
[7]; read-out: MIC S. aureus MDR(4)
  MIC: 0.25 µg/mL (≈ 0.559 µM)
[7]; read-out: MIC S. aureus WT(3)
  MIC: 0.25 µg/mL (≈ 0.559 µM)
[3]
  MIC: 0.5 µg/mL (≈ 1.12 µM)
[13]
  concentration at which nicked DNA is diminished by 50%: 10 µM
  lower concentration for drop of nicked DNA to 50% in comparison with gepotidacin: 2.5 fold
[4]
  minor population of linearized DNA: 10–20%
[8]
  MIC: ≤ 0.06 µg/mL
[9]
  MIC: 0.5 µg/mL (≈ 1.12 µM)
[9]; [22]
  MIC: 1 µg/mL (≈ 2.23 µM)
[9]; [23]
  MIC: 1 µg/mL (≈ 2.23 µM)
[9]; [24]
  MIC: 1 µg/mL (≈ 2.23 µM)
[9]; Escherichia coli, E. coli 10269, NDM-1, read-out: MIC
  MIC: 1 µg/mL (≈ 2.23 µM)
[9]; Escherichia coli, E. coli 10273, KPC-2, read-out: MIC
  MIC: 1 µg/mL (≈ 2.23 µM)
[9]; Escherichia coli, E. coli 10385, NDM-1, read-out: MIC
  MIC: < 0.06 µg/mL
[9]; [18]
  MIC: ≤ 0.06 µg/mL
[9]; Escherichia coli, E. coli 10386, NDM-1, read-out: MIC
  MIC: 1 µg/mL (≈ 2.23 µM)
[9]; Escherichia coli, read-out: MIC
  MIC: 1 µg/mL (≈ 2.23 µM)
[9]; [19]
  MIC: 1 µg/mL (≈ 2.23 µM)
[14]
  difference in complex half-life versus gepotidacin: 10 fold
[15]
  IC50 lower than ciprofloxacin: 12 fold
  IC50 lower than gepotidacin: 7 fold
[10]
  solubility at 24 h: 44 µg/mL (≈ 98.3 µM)
[16]; K. pneumoniae 10270, VIM
  MIC: 4 µg/mL (≈ 8.94 µM)
[16]; K. pneumoniae 10272, 0XA-48
  MIC: 2 µg/mL (≈ 4.47 µM)
[16]; K. pneumoniae 10277, KPC-2
  MIC: 2 µg/mL (≈ 4.47 µM)
[11]
  pIC50: 7.10

## COc1ccc2nccc(-n3cc(CCNCc4ccc5c(c4)NC(=O)CO5)nn3)c2c1 [BDM71346 (9c)]
[6]
  logD: 1.32
[12]; [20]
  MIC: 4 µg/mL (≈ 9.29 µM)
[7]; read-out: MIC S. aureus MDR(4)
  MIC: 32 µg/mL (≈ 74.3 µM)
[7]; read-out: MIC S. aureus WT(3)
  MIC: 16 µg/mL (≈ 37.2 µM)
[8]
  MIC: 1 µg/mL (≈ 2.32 µM)
[9]; [18]
  MIC: 0.5 µg/mL (≈ 1.16 µM)
[9]; [19]
  MIC: 8 µg/mL (≈ 18.6 µM)
[10]
  solubility at 24 h: 76.9 µg/mL (≈ 179 µM)
[11]
  pIC50: 6.11

## COc1ccc2nccc(-n3cc(CCNC(=O)c4ccc5c(c4)NC(=O)CS5)nn3)c2c1 [BDM71367 (11a)]
[6]
  logD: > 2.65
[12]; [20]
  MIC: 4 µg/mL (≈ 8.69 µM)
[7]; read-out: MIC S. aureus MDR(4)
  MIC: 4 µg/mL (≈ 8.69 µM)
[7]; read-out: MIC S. aureus WT(3)
  MIC: 4 µg/mL (≈ 8.69 µM)
[8]
  MIC: 8 µg/mL (≈ 17.4 µM)
[9]; [18]
  MIC: 0.25 µg/mL (≈ 0.543 µM)
[9]; [19]
  MIC: 8 µg/mL (≈ 17.4 µM)
[10]
  solubility at 24 h: < 0.17 µg/mL

## COc1ccc2nccc(-n3cc(CCNC(=O)c4ccc5c(c4)OCCO5)nn3)c2c1 [BDM71373 (11b)]
[6]
  logD: 2.35
[12]; [20]
  MIC: 32 µg/mL (≈ 74.2 µM)
[7]; read-out: MIC S. aureus MDR(4)
  MIC: ≥ 32 µg/mL
[7]; read-out: MIC S. aureus WT(3)
  MIC: ≥ 32 µg/mL
[8]
  MIC: ≥ 32 µg/mL
[9]; [18]
  MIC: 32 µg/mL (≈ 74.2 µM)
[9]; [19]
  MIC: ≥ 32 µg/mL
[10]
  solubility at 24 h: 10.2 µg/mL (≈ 23.6 µM)

## COc1cnc2ccc(=O)n(CCN3CCC(Nc4ccc(Cl)c(Cl)c4)CC3)c2c1 [GSK000]
[17]
  pIC50: 5.27

## COc1ccc2nccc(-n3cc(CCNCc4ccc5c(c4)NC(=O)CS5)nn3)c2c1 [BDM71368 (9a)]
[6]
  logD: 1.81
[12]; [20]
  MIC: 1 µg/mL (≈ 2.24 µM)
[1]
  MIC: 0.5 µg/mL (≈ 1.12 µM)
[7]; read-out: MIC S. aureus MDR(4)
  MIC: 1 µg/mL (≈ 2.24 µM)
[7]; read-out: MIC S. aureus WT(3)
  MIC: 1 µg/mL (≈ 2.24 µM)
[3]
  MIC: 1 µg/mL (≈ 2.24 µM)
[8]
  MIC: 0.5 µg/mL (≈ 1.12 µM)
[9]; [22]
  MIC: 1 µg/mL (≈ 2.24 µM)
[9]; [18]
  MIC: ≤ 0.06 µg/mL
[9]; [19]
  MIC: 1 µg/mL (≈ 2.24 µM)
[15]
  IC50 lower than ciprofloxacin: 10 fold
  IC50 lower than gepotidacin: 6 fold
[10]
  solubility at 24 h: 84.7 µg/mL (≈ 190 µM)
[11]
  pIC50: 5.93

## O=C(O)c1cn(C2CC2)c2cc(N3CCNCC3)c(F)cc2c1=O [Ciprofloxacin, ciprofloxacin, reference compound]
[12]; [21]
  MIC: > 32 µg/mL
[1]
  MIC: 0.25 µg/mL (≈ 0.754 µM)
[2]
  Cohen's d, cell length compared to control: 2.08
[7]; read-out: MIC S. aureus MDR(4)
  MIC: ≥ 128 µg/mL
[3]
  MIC: 1 µg/mL (≈ 3.02 µM)
[8]
  MIC: ≥ 128 µg/mL
[9]; [22]
  MIC: ≤ 0.06 µg/mL
[9]; [23]
  MIC: < 0.06 µg/mL
[9]; [24]
  MIC: 16 µg/mL (≈ 48.3 µM)
[9]; [19]
  MIC: ≤ 0.06 µg/mL
